This is an account of results in patent US11612607B2, “Fenoldopam topical formulations for treating skin disorders” (TARO PHARMACEUTICAL INDUSTRIES LTD., priority 2016, dated 2023).

Common to all, as to format: in vivo, BALB/c mice
Assay [1] relates to IL-17. Kind of assay: Second animal study: IL-17 in skin homogenates (ELISA). From the text: (§1) In both studies, typical features of psoriasis, namely erythema, scaling, and skin thickness, were induced by the application of 5% w/w imiquimod (IMQ) cream on the dorsal skin of BALB/c mice over a period of 6 consecutive days. Animals that developed psoriasis-like symptoms were used for studying the efficacy of the fenoldopam topical compositions. In the fenoldopam-treated groups, the animals received imiquimod only for the first two days. From the third day of the study, the animals received imiquimod and fenoldopam for the next four days. First Animal Study: The different treatment groups of mice used in the first animal study were as following: the SHAM group in the study represents mice which were shaven on the dorsal side without any treatment; negative control group represents the typical psoriatic model induced by imiquimod 5% (IMQ); positive control group represents the mice induced with psoriasis by imiquimod and then treated with the marketed steroid betamethasone valerate (IMQ BMV); and treatment groups represent the mice induced with psoriasis by imiquimod and then treated with a topical dose of 1 mg/cm^2 fenoldopam using different compositions of fenoldopam, such as solution (IMQ FD), water-washable ointment (IMQ WB 45/55), or anhydrous gel (IMQ AG BHT) compositions.
(§2) The second animal study was conducted in order to test additional topical compositions of fenoldopam with different strengths (0.01%, 0.1% and 1% of fenoldopam), as well as the effect of systemic administration of fenoldopam. […]
(§3) The skin homogenates obtained from mice of the different groups were analyzed using ELISA for quantification of IL-17, IL-23, TNF-α, and IL-22 levels, as the selected interleukins are the typical inflammatory markers of psoriasis.

Assay [2] has as its system TNF-α. The experiment in a line: First animal study: TNF-α in skin homogenates (ELISA).
From the text: as §1, with “The effect of topical compositions on the treatment of psoriasis has been tested in two animal studies. In both” for “In both”
(§4) An IMQ-induced psoriasis model reproduces biochemical and histopathological parameters characteristic of human psoriatic lesions. Topical application of the IMQ cream increased levels of cytokines such as IL-23, TNF-α, and IL-17 in the treated skin tissues. The skin homogenates obtained from mice of different groups were analyzed using ELISA for quantification of IL-17, IL-23, and TNF-α, levels as the selected interleukins are the typical inflammatory markers of psoriasis. […] The effect of fenoldopam was as effective as the reference topical treatment with the marketed steroid.
(In general: ELISA stands for enzyme-linked immunosorbent assay.)

The subject of assay [3] is IMQ-induced psoriasis model. The experiment in a line: Second animal study: IMQ-induced psoriasis, phenotype and PASI scoring. Particulars: compared to negative control.
From the text: as §1, §2

In assay [4] the test system is TNF-α. The experiment in a line: Second animal study: TNF-α in skin homogenates (ELISA).
From the text: as §1, §2, §3

Assay [5] relates to IL-17. Kind of assay: First animal study: IL-17 in skin homogenates (ELISA).
From the text: as §1, with “The effect of topical compositions on the treatment of psoriasis has been tested in two animal studies. In both” for “In both”
as §4

A further assay concerns IL-22. Kind of assay: Second animal study: IL-22 in skin homogenates (ELISA).
From the text: as §1, §2, §3

Assay [6] deals with IL-23. The experiment in a line: Second animal study: IL-23 in skin homogenates (ELISA).
From the text: as §1
The second animal study was conducted in order to test additional topical compositions of fenoldopam with different strengths (0.01%, 0.1% and 1% of fenoldopam), as well as the effect of systemic administration of fenoldopam. The different groups of mice used in the second animal study were as following: the SHAM group in the study represents mice which were shaven on the dorsal side without any treatment; negative control group represents the typical psoriatic model induced by imiquimod 5% (IMQ); positive control group represents the mice induced with psoriasis by imiquimod and then treated with the marketed steroid betamethasone valerate (IMQ BMV); and treatment groups represent the mice induced with psoriasis by imiquimod and then treated with a topical dose of various compositions of fenoldopam: water-washable base (IMQ_WB45/55-0.01%, IMQ_WB45/55-0.1%, IMQ_WB45/55-1% or IMQ_WB45/55_1% No citric acid), or oleaginous ointment composition (IMQ_OB 0.01%, IMQ_OB 0.1% or IMQ_OB […]). An additional group of mice received systemic Fenoldopam by intraperitoneal injection (IMQ_FD_IP).
as §3

The subject of assay [7] is IL-23. The experiment in a line: First animal study: IL-23 in skin homogenates (ELISA).
From the text: as §1, with “The effect of topical compositions on the treatment of psoriasis has been tested in two animal studies. In both” for “In both”
as §4

The test system of assay [8] is IMQ-induced psoriasis model. Kind of assay: Second animal study: histopathology (H&E) of skin. Particulars: skin collected on the 7th day.
From the text: as §1, with “BHT) compositions. […]” for “BHT) compositions.”

The subject of assay [9] is IMQ-induced psoriasis model. Kind of assay: First animal study: IMQ-induced psoriasis, phenotype and PASI scoring. From the text: (§5) The effect of topical compositions on the treatment of psoriasis has been tested in two animal studies. In both studies, typical features of psoriasis, namely erythema, scaling, and skin thickness, were induced by the application of 5% w/w imiquimod (IMQ) cream on the dorsal skin of BALB/c mice over a period of 6 consecutive days. Animals that developed psoriasis-like symptoms were used for studying the efficacy of the fenoldopam topical compositions. In the fenoldopam-treated groups, the animals received imiquimod only for the first two days. From the third day of the study, the animals received imiquimod and fenoldopam for the next four days. […]
Psoriatic area and severity index (PASI) scoring has been analyzed to determine the efficacy of the fenoldopam compositions of the present invention with appropriate controls as part of the study. FIG. 11 depicts PASI scoring including body weight, erythema, scaling, and skin thickness determined during the study. […]

In assay [10] the test system is IMQ-induced psoriasis model. The experiment in a line: First animal study: histopathology (H&E) of dorsal skin. Particulars: vs. IMQ-treated group.
From the text: as §5

Turning to `CCCCC(=O)O[C@]1(C(=O)CO)[C@@H](C)C[C@H]2[C@@H]3CCC4=CC(=O)C=C[C@]4(C)[C@@]3(F)[C@@H](O)C[C@@]21C` [BMV, betamethasone valerate], the results for the “Fold difference in IL-17 levels (↓, vs. IMQ)” value with IL-17 [1] (listed as IMQ_BMV) and with IL-17 [1] (listed as positive control) were 1.43 ↓ fold and 1.43 fold, respectively. For the same compound, the “Decrease in TNF-α levels in comparison with the IMQ group” value in the assay with TNF-α [2] (first animal study) was 2.75 fold. Besides, the “Level of TNF-α” value with TNF-α [2] (vs. IMQ group) was “inhibited”. Further, the results for the “Psoriasis symptoms (phenotypic images: erythema, scaling, skin thickness)” value in assay [3] and in assay [3] (listed as IMQ_BMV) were “remission of the psoriasis symptoms” and “amelioration of psoriatic symptoms”, respectively. In addition, the “Fold difference in TNF-α levels (↓, vs. IMQ)” value is listed as 2.21 ↓ fold with TNF-α [4] (listed as IMQ_BMV) and 2.21 fold in the assay with TNF-α [4] (listed as positive control). In addition, the “Decrease in IL-17 levels in comparison with the IMQ group” value with IL-17 [5] (first animal study) was found to be 2.74 fold. Besides, the “Level of IL-17” value in the assay on IL-17 [5] (vs. IMQ group) is “inhibited”. Besides, the “Fold difference in IL-22 levels (↓, vs. IMQ)” value in the assay on IL-22 (listed as IMQ_BMV) was 1.55 ↓ fold; in the assay with IL-22 (listed as positive control) it was 1.55 fold. The “Decline in IL-23 levels compared to the negative control” value with IL-23 [6] (listed as IMQ_BMV) is listed as “decline in IL-23 levels”. The “Fold difference in IL-23 levels (↓, vs. IMQ)” value in the assay on IL-23 [6] (listed as IMQ_BMV) is 1.57 ↓ fold; with IL-23 [6] (listed as positive control), 1.57 fold. Further, in the assay with IL-23 [7] (first animal study), the “Decrease in IL-23 levels in comparison with the IMQ group” value was determined as 2.02 fold. The “Level of IL-23” value in the assay on IL-23 [7] (vs. IMQ group) is “inhibited”. In addition, the entries for the “Histopathology (H&E): psoriatic features” value in [8] and in [10] were “ameliorated all of the above-mentioned parameters” and “decline in the intensity of psoriatic features”, respectively. Besides, the “Psoriatic symptoms (phenotypic images of dorsal skin)” value in assay [9] (IMQ-treated mice, topical treatment for four days, 1 mg/cm^2 fenoldopam) is given as “amelioration of psoriatic symptoms”. The “PASI scores over the treatment period” value in assay [9] (scale of 0-4, vs. negative control) is listed as “declines in PASI scores”.
